Each compound was assayed against TRIP8b-HCN1c40 (Homo sapiens (Human), UniProt Q8IYB4) (assay: TRIP8b-HCN1c40 AlphaScreen assay). Details: activity ranges; read-out: TRIP8b-HCN1c40 Alphascreen IC50 activity.
Assay type: binding
Procedure: AlphaScreen Assay. 20 nM ofGST-tagged HCNlc40 protein (corresponding to the C terminal 40 amino acids of HCN1) was incubated with 200 nM of His-tagged TRIP8b(241-602) and varying concentrations of the test compound as described in our prior report (Han et al., 2015). After a 3 h incubation, anti-GST AlphaScreen acceptor beads were added for 1.5 h followed by AlphaScreen nickel chelate donor beads for 1.5 h. AlphaScreen signal was quantified using a PerkinElmer (Waltham, MA) EnSpire multimode plate reader.

TRIP8b-HCN1c40, sequence (Q8IYB4 265-626): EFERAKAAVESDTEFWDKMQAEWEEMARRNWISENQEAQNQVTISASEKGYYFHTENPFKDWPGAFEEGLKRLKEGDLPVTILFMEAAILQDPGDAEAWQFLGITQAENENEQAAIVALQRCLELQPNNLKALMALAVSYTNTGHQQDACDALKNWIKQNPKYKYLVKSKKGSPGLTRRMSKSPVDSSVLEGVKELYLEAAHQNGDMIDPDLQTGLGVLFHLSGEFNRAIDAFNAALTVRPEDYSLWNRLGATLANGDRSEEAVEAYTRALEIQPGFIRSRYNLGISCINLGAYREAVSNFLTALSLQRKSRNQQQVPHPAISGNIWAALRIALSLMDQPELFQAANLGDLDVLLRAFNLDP

IC50 | Structure (SMILES)
< 1000 nM | Cc1ccc([C@@H](C)NC(=O)C(C)Oc2ccc(-c3cc(Cl)cc(Cl)c3)cc2CN2CCN(C)CC2)cc1 (stereo partly drawn) [NUCC-0202049]
10000 to 20000 nM | CN1CCN(Cc2cc(-c3ccc(N)cc3)ccc2OCC(=O)NCc2ccc(Cl)cc2)CC1 [NUCC-0202053]
2000 to 5000 nM | C=Cc1ccc(-c2ccc(OCC(=O)NCc3ccc(Cl)cc3)c(CN3CCN(C)CC3)c2)cc1 [NUCC-0201713]
1000 to 2000 nM | Cc1cccc(-c2ccc(OCC(=O)Nc3ccc(Cl)c(Cl)c3)c(CN3CC[C@H](N)C3)c2)c1 [NUCC-0201621]
1000 to 2000 nM | Cc1ccc(-c2ccc(CN3CCN(C)CC3)c(OCC(=O)NCc3ccc(Cl)cc3)c2)cc1 [NUCC-0202011]
< 1000 nM | CN1CCN(Cc2cc(-c3ccc(Cl)cc3)ccc2OCC(=O)NCc2ccc(Cl)c(Cl)c2)CC1 [NUCC-0201977]
2000 to 5000 nM | CN1CCN(Cc2cc(-c3ccc(Cl)c(Cl)c3)ccc2OCC(=O)NCc2ccccc2)CC1 [NUCC-0201987]
5000 to 10000 nM | Cc1ccc(-c2ccc(OCC(=O)Nc3ccc(Cl)cc3)c(CN3CCC(N(C)C)CC3)c2)cc1 [NUCC-0201608]
1000 to 2000 nM | CN1CCN(Cc2cc(-c3ccc(Cl)c(Cl)c3)ccc2OCC(=O)N2Cc3ccc(Cl)cc3C2)CC1 [NUCC-0201993]
< 1000 nM | CN1CCN(Cc2cc(-c3ccc(Cl)c(Cl)c3)ccc2OCC(=O)NC2Cc3ccc(Cl)cc3C2)CC1 (stereo not drawn) [NUCC-0201992]
2000 to 5000 nM | CN1CCN(Cc2cc(-c3cc(C(F)(F)F)cnc3Cl)ccc2OCC(=O)Nc2ccc(Cl)c(Cl)c2)CC1 [NUCC-0202007]
< 1000 nM | CN1CCN(Cc2cc(-c3ccc(Cl)c(Cl)c3)ccc2OCC(=O)NCc2ccccc2Cl)CC1 [NUCC-0201983]
2000 to 5000 nM | CN1CCN(Cc2cc(-c3ccc(Cl)c(Cl)c3)ccc2OCC(=O)NCc2ccc([N+](=O)[O-])cc2)CC1 [NUCC-0201985]
< 1000 nM | CN1CCN(Cc2cc(-c3ccc(Cl)c(Cl)c3)ccc2OCC(=O)Nc2ccc(Cl)cc2)CC1 [NUCC-0202016]
< 1000 nM | CN1CCN(Cc2cc(-c3ccc(Cl)c(Cl)c3)ccc2OCC(=O)N2CCc3cc(Cl)ccc32)CC1 [NUCC-0201981]
20000 to 40000 nM | COc1ccc(NC(=O)COc2ccc(-c3cccc(C)c3)cc2CN2CC[C@H](N)C2)cn1 [NUCC-0201619]
10000 to 20000 nM | Cc1ccc(-c2ccc(OCC(=O)NCc3ccccc3)c(CN3CCCN(C)CC3)c2)cc1 [NUCC-0201598]
10000 to 20000 nM | Cc1ccc(-c2ccc(OCC(=O)NCc3ccc(F)cc3)c(CN3CCC(N(C)C)CC3)c2)cc1 [NUCC-0201609]
1000 to 2000 nM | CN1CCN(Cc2cc(-c3ccc(Cl)c(C(F)(F)F)c3)ccc2OCC(=O)Nc2ccc(Cl)c(Cl)c2)CC1 [NUCC-0202023]
1000 to 2000 nM | CN1CCN(Cc2cc(-c3ccc4c(c3)OCCO4)ccc2OCC(=O)Nc2ccc(Cl)c(Cl)c2)CC1 [NUCC-0202021]
< 1000 nM | CN1CCN(Cc2cc(-c3ccc(Cl)cc3Cl)ccc2OCC(=O)NCc2ccc(Cl)c(Cl)c2)CC1 [NUCC-0201978]
< 1000 nM | CN1CCN(Cc2cc(-c3ccc(Cl)cc3)ccc2OCC(=O)Nc2ccc(Cl)c(Cl)c2)CC1 [NUCC-0201999]

Same assay, conditions: read-out: TRIP8b-HCN1c40 Alphascreen IC50

IC50 | Structure (SMILES)
< 740 nM | Cc1ccc([C@@H](C)NC(=O)C(C)Oc2ccc(-c3cc(Cl)cc(Cl)c3)cc2CN2CCN(C)CC2)cc1 (stereo partly drawn) [NUCC-0202049]
18000 nM | CN1CCN(Cc2cc(-c3ccc(N)cc3)ccc2OCC(=O)NCc2ccc(Cl)cc2)CC1 [NUCC-0202053]
4700 nM | C=Cc1ccc(-c2ccc(OCC(=O)NCc3ccc(Cl)cc3)c(CN3CCN(C)CC3)c2)cc1 [NUCC-0201713]
1300 nM | Cc1cccc(-c2ccc(OCC(=O)Nc3ccc(Cl)c(Cl)c3)c(CN3CC[C@H](N)C3)c2)c1 [NUCC-0201621]
1500 nM | Cc1ccc(-c2ccc(CN3CCN(C)CC3)c(OCC(=O)NCc3ccc(Cl)cc3)c2)cc1 [NUCC-0202011]
870 nM | CN1CCN(Cc2cc(-c3ccc(Cl)cc3)ccc2OCC(=O)NCc2ccc(Cl)c(Cl)c2)CC1 [NUCC-0201977]
2500 nM | CN1CCN(Cc2cc(-c3ccc(Cl)c(Cl)c3)ccc2OCC(=O)NCc2ccccc2)CC1 [NUCC-0201987]
7000 nM | Cc1ccc(-c2ccc(OCC(=O)Nc3ccc(Cl)cc3)c(CN3CCC(N(C)C)CC3)c2)cc1 [NUCC-0201608]
1900 nM | CN1CCN(Cc2cc(-c3ccc(Cl)c(Cl)c3)ccc2OCC(=O)N2Cc3ccc(Cl)cc3C2)CC1 [NUCC-0201993]
< 740 nM | CN1CCN(Cc2cc(-c3ccc(Cl)c(Cl)c3)ccc2OCC(=O)NC2Cc3ccc(Cl)cc3C2)CC1 (stereo not drawn) [NUCC-0201992]
150000 nM | CCN(CC)C(=O)COc1ccc(-c2ccc(F)cc2)cc1CN1CCN(C)CC1 [NUCC-0201100]
58000 nM | O=Cc1cc(-c2ccc(F)cc2)ccc1O [NUCC-0201191]
4600 nM | CN1CCN(Cc2cc(-c3cc(C(F)(F)F)cnc3Cl)ccc2OCC(=O)Nc2ccc(Cl)c(Cl)c2)CC1 [NUCC-0202007]
910 nM | CN1CCN(Cc2cc(-c3ccc(Cl)c(Cl)c3)ccc2OCC(=O)NCc2ccccc2Cl)CC1 [NUCC-0201983]
92000 nM | COc1ncc(-c2ccc(OCC(=O)NCc3ccc(Cl)cc3)c(CN3CCN(C)CC3)c2)c(OC)n1 [NUCC-0201189]
2500 nM | CN1CCN(Cc2cc(-c3ccc(Cl)c(Cl)c3)ccc2OCC(=O)NCc2ccc([N+](=O)[O-])cc2)CC1 [NUCC-0201985]
780 nM | CN1CCN(Cc2cc(-c3ccc(Cl)c(Cl)c3)ccc2OCC(=O)Nc2ccc(Cl)cc2)CC1 [NUCC-0202016]
< 740 nM | CN1CCN(Cc2cc(-c3ccc(Cl)c(Cl)c3)ccc2OCC(=O)N2CCc3cc(Cl)ccc32)CC1 [NUCC-0201981]
24000 nM | COc1ccc(NC(=O)COc2ccc(-c3cccc(C)c3)cc2CN2CC[C@H](N)C2)cn1 [NUCC-0201619]
20000 nM | Cc1ccc(-c2ccc(OCC(=O)NCc3ccccc3)c(CN3CCCN(C)CC3)c2)cc1 [NUCC-0201598]
16000 nM | Cc1ccc(-c2ccc(OCC(=O)NCc3ccc(F)cc3)c(CN3CCC(N(C)C)CC3)c2)cc1 [NUCC-0201609]
1300 nM | CN1CCN(Cc2cc(-c3ccc(Cl)c(C(F)(F)F)c3)ccc2OCC(=O)Nc2ccc(Cl)c(Cl)c2)CC1 [NUCC-0202023]
> 40000 nM | Cc1ccc(-c2ccc(OCC(=O)NCc3cnc[nH]3)c(CN3CCC(N(C)C)CC3)c2)cc1 [NUCC-0201612]
1400 nM | CN1CCN(Cc2cc(-c3ccc4c(c3)OCCO4)ccc2OCC(=O)Nc2ccc(Cl)c(Cl)c2)CC1 [NUCC-0202021]
< 740 nM | CN1CCN(Cc2cc(-c3ccc(Cl)cc3Cl)ccc2OCC(=O)NCc2ccc(Cl)c(Cl)c2)CC1 [NUCC-0201978]
< 740 nM | CN1CCN(Cc2cc(-c3ccc(Cl)cc3)ccc2OCC(=O)Nc2ccc(Cl)c(Cl)c2)CC1 [NUCC-0201999]
